Structures can show the parent of a compound that is named as a salt.
Legend:
albino mice = assay: climbing test, central depressant (sedative) action on albino mice; assay type: in vivo; conditions: Mus musculus, po, read-out: Central depressant action in % (percentage of animals which no longer embark on the climbing work); for responders at 8 mg/kg: 8.0 mg/kg orally
Procedure: The pharmacological examination of the central depressant (sedative) action was carried out on albino mice with the aid of the climbing test described by P. K. KNEIP: Arch. int. pharmacodyn 126, 238 (1960) and R. DOMENJOZ and W. THEOBALD: Arch. int. pharmacodyn 120, 450 (1959).
In the final column of the table, the percentage of the experimental animals which no longer embark on the climbing work, which is normally readily undertaken, is given under the heading "Central depressant action in %".
(§1) The benzophenone derivatives were tested in the form of their hydrochlorides.

[1] = LD50 mice intraperitoneally; conditions: mouse, in vivo, ip, benzophenones as hydrochlorides
Procedure: as §1

SMILES | responders at 8 mg/kg (albino mice; as hydrochloride) [%] | LD50 [1] [mg/kg] | responders at 10 mg/kg (albino mice; 10.0 mg/kg orally, as hydrochloride) [%] | responders at 4 mg/kg (albino mice; 4.0 mg/kg orally, as hydrochloride) [%] | responders at 70 mg/kg (albino mice; 70 mg/kg orally, comparison preparation) [%]
CC(Cc1ccccc1)NCC(=O)N(C)c1ccc([N+](=O)[O-])cc1C(=O)c1ccccc1 (racemic) [DL-2-(5-Phenyl-N-methyl-4-methyl-3-aza-pentanamido)-5-nitrobenzophenone hydrochloride] | 50 | 44 |  |  | 
CC(Cc1ccccc1)NCC(=O)N(C)c1ccc(Cl)cc1C(=O)c1ccccc1Cl (racemic) [DL-2-(5-phenyl-N-methyl-4-methyl-3-aza-pentanamido)-2',5-dichlorobenzophenone hydrochloride] | 70 | 24 |  |  | 
CC(Cc1ccccc1)NCC(=O)N(C)c1ccc(Cl)cc1C(=O)c1ccccc1 (racemic) [DL-2-(5-phenyl-N-methyl-4-methyl-3-aza-pentanamido)-5-chlorobenzophenone hydrochloride] | 40 | 240 |  |  | 
CCOC(=O)NCC(=O)N(C)c1ccc([N+](=O)[O-])cc1C(=O)c1ccccc1 [2-(3-Ethoxycarbonyl)-N-methyl-3-aza-propanamido)-5-nitro-benzophenone] |  | 500 | 70 |  | 
CCOC(=O)NCC(=O)N(C)c1ccc(Cl)cc1C(=O)c1ccccc1Cl [2-(3-Ethoxycarbonyl-N-methyl-3-aza-propanamido)-2',5-dichlorobenzophenone] | 90 | 240 |  |  | 
CN(CC(=O)Nc1ccc(Cl)cc1C(=O)c1ccccc1)C(=S)Nc1ccccc1 [2-(3-Phenylaminothiocarbonyl-3-aza-3-methyl-propanamido)-5-chlorobenzophenone] | 50 | > 1000 |  |  | 
CCOC(=O)NCC(=O)N(C)c1ccc(Cl)cc1C(=O)c1ccccc1.Cl [2-(3-ethoxycarbonyl-N-methyl-3-aza-propanamido)-5-chlorobenzophenone hydrochloride] |  | 270 |  | 30 | 
CCCCNC(=O)CCN(CCCC)CC(=O)N(C)c1ccc([N+](=O)[O-])cc1C(=O)c1ccccc1 [2-(5-n-Butylaminocarbonyl-N-methyl-3-n-butyl-3-aza-pentanamido)-5-nitro-benzophenone] | 50 | 500 |  |  | 
CCCC(C)(COC(N)=O)COC(N)=O [Meprobamate, reference compound] |  |  |  |  | 50
